Assay results taken from paper PMC3810412 (Bioorganic & medicinal chemistry letters, 2013).
Where two headings read alike, the source gives them in different places.

Experiments:
[1] = biological target: T1, GPI, Substance P induced muscle contraction (Cavia porcellus, UniProt P30547); experiment: GPI assay, Substance P antagonist; format: cell-based; details: in the presence of 1 μM naloxone, n = 4
GPI (μ) = GPI (μ) (Cavia porcellus, UniProt P97266); details: read-out: GPI (μ) opioid agonist IC50; ref 3a; cited from earlier work
human NK1 receptors = human NK1 receptors (Homo sapiens, UniProt P25103); details: ratio; ref 3a; cited from earlier work
human NK1 receptors, sequence (P25103 whole entry): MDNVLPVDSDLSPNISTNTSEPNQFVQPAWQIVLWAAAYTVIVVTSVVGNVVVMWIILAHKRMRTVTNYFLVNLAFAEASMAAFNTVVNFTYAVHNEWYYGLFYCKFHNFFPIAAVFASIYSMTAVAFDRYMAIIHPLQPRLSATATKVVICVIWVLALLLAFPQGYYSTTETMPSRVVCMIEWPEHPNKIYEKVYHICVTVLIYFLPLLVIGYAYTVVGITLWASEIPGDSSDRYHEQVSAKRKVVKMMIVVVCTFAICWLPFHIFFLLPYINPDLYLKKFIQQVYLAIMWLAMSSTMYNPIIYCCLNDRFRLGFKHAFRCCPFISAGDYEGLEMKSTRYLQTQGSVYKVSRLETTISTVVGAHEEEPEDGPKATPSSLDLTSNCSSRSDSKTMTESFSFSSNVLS

rat NK1 receptors = rat NK1 receptors (Rattus norvegicus, UniProt P14600); details: read-out: rNK1 Ki; [3H]Substance P; ref 3a; cited from earlier work
rat NK1 receptors, sequence (P14600 whole entry): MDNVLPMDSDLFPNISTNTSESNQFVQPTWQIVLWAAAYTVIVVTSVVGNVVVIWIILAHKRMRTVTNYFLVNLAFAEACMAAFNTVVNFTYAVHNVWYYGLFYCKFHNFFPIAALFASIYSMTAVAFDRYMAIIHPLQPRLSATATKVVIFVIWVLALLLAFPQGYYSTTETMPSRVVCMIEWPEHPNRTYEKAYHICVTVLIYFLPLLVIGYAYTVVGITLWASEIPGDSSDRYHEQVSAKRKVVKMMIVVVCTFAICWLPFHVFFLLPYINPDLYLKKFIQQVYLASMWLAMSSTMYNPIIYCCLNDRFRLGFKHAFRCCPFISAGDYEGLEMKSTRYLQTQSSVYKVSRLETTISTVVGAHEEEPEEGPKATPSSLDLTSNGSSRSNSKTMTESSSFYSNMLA

MVD (δ) = MVD (δ) (Mus musculus, UniProt P32300); details: read-out: MVD (δ) opioid agonist IC50; ref 3a; cited from earlier work
MVD (δ), sequence (P32300 whole entry): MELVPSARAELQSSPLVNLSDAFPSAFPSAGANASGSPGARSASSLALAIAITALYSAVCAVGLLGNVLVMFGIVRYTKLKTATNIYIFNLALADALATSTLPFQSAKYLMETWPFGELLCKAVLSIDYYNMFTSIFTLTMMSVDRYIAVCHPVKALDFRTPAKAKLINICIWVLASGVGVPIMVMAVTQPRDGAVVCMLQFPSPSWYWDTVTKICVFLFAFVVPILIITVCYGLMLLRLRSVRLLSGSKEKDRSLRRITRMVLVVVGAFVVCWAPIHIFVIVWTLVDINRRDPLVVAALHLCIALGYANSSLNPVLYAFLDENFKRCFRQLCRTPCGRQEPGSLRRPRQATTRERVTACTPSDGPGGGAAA

rodent model = details: ref 2a, cited from earlier work
[2] = biological target: T1, GPI, Substance P induced muscle contraction; details: 1 μM naloxone; ref 3a; cited from earlier work

T1 sequence (P30547 whole entry): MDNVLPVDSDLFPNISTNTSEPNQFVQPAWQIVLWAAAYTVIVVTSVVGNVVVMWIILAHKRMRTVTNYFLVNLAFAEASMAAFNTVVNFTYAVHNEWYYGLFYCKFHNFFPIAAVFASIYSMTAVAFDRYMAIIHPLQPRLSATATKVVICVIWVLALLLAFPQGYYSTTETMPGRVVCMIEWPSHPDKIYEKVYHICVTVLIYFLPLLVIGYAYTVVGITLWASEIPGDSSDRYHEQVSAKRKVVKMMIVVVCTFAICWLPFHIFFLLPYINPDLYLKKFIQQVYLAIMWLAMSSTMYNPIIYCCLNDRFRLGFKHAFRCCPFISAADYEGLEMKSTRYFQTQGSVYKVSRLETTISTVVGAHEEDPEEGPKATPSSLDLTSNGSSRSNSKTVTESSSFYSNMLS

Row | Compound | GPI Substance P antagonist Ke [1] [nM] | IC50 (GPI (μ)) [nM] | Ki(hNK1)/Ki(rNK1) (human NK1 receptors) | Ki (rat NK1 receptors) [nM] | IC50 (MVD (δ)) [nM] | opioid-induced tolerance (rodent model) | reward liability (rodent model) | effect on neuropathic pain (rodent model; rodent model) | GPI Substance P antagonist Ke [2] [nM]
1 | CC(=O)N[C@@H](Cc1c[nH]c2ccccc12)C(=O)OCc1cc(C(F)(F)F)cc(C(F)(F)F)c1 [L-732,138] | 250 | – | – | – | – | – | – | – | –
2 | Tyr^1-DAla^2-Gly^3-Phe^4-Met^5-Pro^6-Leu^7-Trp^8-O-[3′,5′-Bzl(CF3)2] [compound 1] | – | 360 | 3.5 | 0.29 | 22 | no sign of opioid-induce tolerance | no development of reward liability | reverse neuropathic pain | 25
